According to patent publication US20210145802A1, “THERAPY FOR OPHTHALMOLOGICAL CONDITIONS” (WREN THERAPEUTICS LIMITED, priority 2018, published 2021):

How the values were obtained:
Aβ42 = target: T1, Aβ42 (Homo sapiens, UniProt P05067); test: ThT kinetic assay of Aβ42 fibril formation (unseeded); format: biochemical; settings: 2 μM Aβ42; range of Netoglitazone concentrations; ThT fluorescence
T1 construct: […]; made in house; host or cells: E. coli BL21 Gold (DE3)
Text: The recombinant Aβ(M1-42) peptide ([…]-SNKGAIIGLMVGGVVIA [SEQ ID NO: 1]), here called Aβ42, was expressed in the E. coli BL21 Gold (DE3) strain (Stratagene, CA, U.S.A.) and purified as described previously with slight modifications. Briefly, the purification procedure involved sonication of E. coli cells, dissolution of inclusion bodies in 8 M urea, and ion exchange in batch mode on diethylaminoethyl cellulose resin and lyophylization. The lyophilized fractions were further purified using Superdex 75 HR 26/60 column (GE Healthcare, Buckinghamshire, U.K.) and eluates were analyzed using SDS-PAGE for the presence of the desired protein product. The fractions containing the recombinant protein were combined, frozen using liquid nitrogen, and lyophilized again.
Except for Netoglitazone, which was custom synthesised by GVK BIO, all small molecules were purchased with a purity greater than 99%. Small molecules were first solubilized in 100% DMSO to a concentration of 5 mM, and then diluted in the peptide solution to reach a final DMSO concentration of maximum 1-3%. We verified that the addition of DMSO in the reaction mixture has no effect on Aβ42 aggregation.
Solutions of monomeric peptides were prepared by dissolving the lyophilized Aβ42 peptide in 6 M GuHCl. Monomeric forms were purified from potential oligomeric species and salt using a Superdex 75 10/300 GL column (GE Healthcare) at a flowrate of 0.5 mL/min, and were eluted in 20 mM sodium phosphate buffer, pH 8 supplemented with 200 μM EDTA and 0.02% NaN3. The centre of the peak was collected, and the peptide concentration was determined from the absorbance of the integrated peak area using ε280=1490 L mol^−1 cm^−1. The obtained monomer was diluted with buffer to the desired concentration and supplemented with 20 μM Thioflavin T (ThT) from a 1 mM stock. All samples were prepared in low binding Eppendorf tubes on ice using careful pipetting to avoid introduction of air bubbles. Each sample was then pipetted into multiple wells of a 96-well half-area, low-binding, clear bottom and PEG coating plate (Corning 3881), 80 μL per well. Aβ42 kinetics have been performed in the absence or the presence of Netoglitazone, Mitoglitazone, Rosiglotazone, Rivoglitazone, Pioglitazone, Ciglitazone, Englitazone, Darglitazone, Troglitazone and B alaglitazone.

NL5901 (α-syn worms) = test: Automated motility assay, α-syn worms; format: in vivo, C. elegans; settings: same concentration range; compared with effect in Aβ worms
Method: NL5901 (pkIs2386 [α-synuclein::YFP unc-119(+)]) (“α-syn worms”), in which α-synuclein fused to YFP relocates to inclusions, which are visible as early as day 2 after hatching and increase in number and size during the aging of the animals, up to late adulthood (day 17) (T. J. Van Ham et al., C. elegans model identifies genetic modifiers of α-synuclein inclusion formation during aging. PLoS Genetics. 4 (2008));
(§1) Briefly, Netoglitazone stocks (5 mM in 100% DMSO) were used at an appropriate concentration to seed 9-cm NGM plates. Plates were then placed in a laminar flow hood at room temperature (22° C.) for up to 4 hours to dry. […]
(§2) All C. elegans populations were cultured at 20° C. and developmentally synchronized from a 4 h egg-lay. At 64-72 h post-egg-lay (time zero), individuals were transferred to FUDR plates, and body movements were assessed over the times indicated. At different ages, the animals were washed off the plates with M9 buffer and spread over an OP-50 unseeded 9 cm plate, after which their movements were recorded at 20 fps using a recently developed microscopic procedure (M. Perni et al., Massively parallel C. elegans tracking provides multi-dimensional fingerprints for phenotypic discovery. J. Neurosci. Methods. 306, 57-67 (2018)) for 1 min. Up to 600 animals were counted in each experiment in duplicate unless stated otherwise. […]

GMC101 (Aβ worms) = test: Survival rate of Aβ worms; format: in vivo, C. elegans; settings: administered at D3; D5 of adulthood
Method: Briefly, Netoglitazone stocks (5 mM in 100% DMSO) were used at an appropriate concentration to seed 9-cm NGM plates. Plates were then placed in a laminar flow hood at room temperature (22° C.) for up to 4 hours to dry. C. elegans cultures were then transferred onto media seeded with compound as L4 stage or Day 3 for late treatments and incubated at 24° for the whole experiment. Experiments were carried out at different Netoglitazone concentrations ranging from 0.05 to 500 μM in 1% DMSO. As controls, plates seeded only with 1% DMSO were used.

[1] = system: CL2331 (Aβ3-42::GFPMuscular worms); test: Automated motility assay, Aβ3-42::GFPMuscular worms; format: in vivo, C. elegans; settings: compared to untreated worms
Method: CL2331; dvIs37 [myo-3p::GFP::A-Beta (3-42)+rol-6(su1006)] (Aβ3-42::GFPMuscular worms). Maintain at 16 C. Roller. Diffuse and aggregated GFP expression in body wall muscle. Low brood size. Sicker at higher temperatures. (C. D. Link et al., The β amyloid peptide can act as a modular aggregation domain. Neurobiol. Dis. 32, 420-425 (2008));
as §1, §2

[2] = system: CL2355 (Aβ1-42Neur worms); test: Chemotaxis assay, Aβ1-42Neur worms; format: in vivo, C. elegans; settings: 5 μM; 5 days at 24° C.; day 6 of adulthood; compared to untreated worms
Method: Chemotaxis measurements were carried out as previously described (O. Margie, C. Palmer, I. Chin-Sang, C. elegans Chemotaxis Assay. J Vis Exp, e50069 (2013)) and as illustrated in FIG. 6C. Briefly, adult synchronized transgenic C. elegans CL2355 worms and wild-type healthy worms were incubated with or without 5 μM Netoglitazone for 5 days 24° C. At day 6 of adulthood the worms were then collected, washed with M9 buffer three times, and assayed in 9 cm screening plates (1.9% agar, 1 mM CaCl2, 1 mM MgSO4, and 25 mM phosphate buffer, pH 6.0) seeded with 50 μl of a 10× culture of Op50 Bacteria or sterile water, as attractant or test conditions, respectively and in combination with 1 μl of 1M Levamisole. Ca. 200 worms were placed in the central quadrant of the plate and incubated at 24° C. for 8 h, after which the chemotaxis index (CI) was scored. The CI was defined as follows (O. Margie et al (2013)):
(number of worms at the attractant locations−number of worms at the control locations)/total number of worms on the plate
Worms that were remaining in the central quadrant were excluded.

N2 healthy control worms = test: Automated motility assay, healthy worms; format: in vivo, C. elegans; settings: same concentration range; compared with effect in Aβ worms
Method: N2 C. elegans var. Bristol used as controls (also labelled “healthy”). Generation time is about 3 days. Brood size is about 350, wild type phenotype, sub-cultured in 1973 (S. Brenner, The genetics of Caenorhabditis elegans. Genetics. 77, 71-94 (1974)).
Briefly, Netoglitazone stocks (5 mM in 100% DMSO) were used at an appropriate concentration to seed 9-cm NGM plates. Plates were then placed in a laminar flow hood at room temperature (22° C.) for up to 4 hours to dry. C. elegans cultures were then transferred onto media seeded with compound as L4 stage or Day 3 for late treatments and incubated at 24° for the whole experiment. […]
as §2

T1 sequence (P05067 671-713): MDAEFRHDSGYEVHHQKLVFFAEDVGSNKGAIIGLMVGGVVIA

O=C1NC(=O)C(Cc2ccc3cc(OCc4ccccc4F)ccc3c2)S1 (stereo not drawn) [Netoglitazone]
delay in Aβ42 aggregation (Aβ42): substantial delay
effect on mobility of α-syn worms (NL5901 (α-syn worms)): negligible
survival rate after late administration (GMC101 (Aβ worms)): increase
motility of Aβ3-42::GFPMuscular worms [1]: significantly improves the motility
chemotaxis index [2]: significantly improved
effect on mobility of healthy worms (N2 healthy control worms): negligible
